Laboratory results as given in ChEMBL document CHEMBL5465560, “Selectivity Literature for EUbOPEN Chemogenomic Library” (2024).

Experiments:
[1] = target: STE20/SPS1-related proline-alanine-rich protein kinase (Homo sapiens) (UniProt Q9UEW8); assay: Selectivity interaction (Kinome Scan (DiscoverX)) EUB0000229b STK39; details: at 10 µM
[2] = target: Serine/threonine-protein kinase MARK2 (Homo sapiens) (UniProt Q7KZI7); assay: Selectivity interaction (KinomeScan (DiscoverX)) EUB0001079a MARK2; details: at 1 µM
[3] = target: T1, Cyclin-dependent kinase 11A (Homo sapiens) (UniProt Q9UQ88); details: at 10 µM
T1 sequence (whole entry): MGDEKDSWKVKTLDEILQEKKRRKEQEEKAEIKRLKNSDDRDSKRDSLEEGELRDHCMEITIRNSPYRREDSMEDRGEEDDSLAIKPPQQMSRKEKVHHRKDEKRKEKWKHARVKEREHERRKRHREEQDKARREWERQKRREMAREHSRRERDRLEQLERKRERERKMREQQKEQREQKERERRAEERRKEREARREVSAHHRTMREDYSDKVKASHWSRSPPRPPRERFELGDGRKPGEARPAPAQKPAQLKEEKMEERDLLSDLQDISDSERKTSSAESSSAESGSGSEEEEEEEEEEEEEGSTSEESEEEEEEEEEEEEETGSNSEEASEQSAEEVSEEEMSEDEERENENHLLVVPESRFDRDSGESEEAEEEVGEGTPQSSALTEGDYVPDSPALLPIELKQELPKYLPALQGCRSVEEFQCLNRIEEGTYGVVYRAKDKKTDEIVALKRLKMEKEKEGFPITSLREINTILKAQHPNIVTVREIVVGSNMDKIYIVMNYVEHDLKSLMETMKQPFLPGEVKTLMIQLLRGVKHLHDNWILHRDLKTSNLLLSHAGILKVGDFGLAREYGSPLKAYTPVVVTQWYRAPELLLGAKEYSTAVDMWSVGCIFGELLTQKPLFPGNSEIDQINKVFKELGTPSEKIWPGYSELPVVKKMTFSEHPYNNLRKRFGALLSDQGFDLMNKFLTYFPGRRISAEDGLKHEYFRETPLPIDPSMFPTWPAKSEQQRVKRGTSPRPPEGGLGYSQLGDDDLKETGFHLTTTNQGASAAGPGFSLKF

[4] = target: Ribosomal protein S6 kinase alpha-4 (Homo sapiens) (UniProt O75676); assay: Selectivity interaction (Kinase panel (Z-LYTE Assay)) EUB0001632a RPS6KA4; details: at 10 µM
[5] = target: Cyclin-dependent kinase 7 (Homo sapiens, UniProt P50613); assay: Selectivity interaction (ActivX KiNativ screen (kinase selectivity in THP-1 cell lysates)) EUB0000639a CDK7; format: subcellular; details: lysate, at 0.04 µM
[6] = target: T2, Serine/threonine-protein kinase DCLK3 (Homo sapiens) (UniProt Q9C098); assay: Selectivity interaction (KinomeScan (DiscoverX)) EUB0001049a DCLK3; details: at 1 µM
T2 sequence (whole entry): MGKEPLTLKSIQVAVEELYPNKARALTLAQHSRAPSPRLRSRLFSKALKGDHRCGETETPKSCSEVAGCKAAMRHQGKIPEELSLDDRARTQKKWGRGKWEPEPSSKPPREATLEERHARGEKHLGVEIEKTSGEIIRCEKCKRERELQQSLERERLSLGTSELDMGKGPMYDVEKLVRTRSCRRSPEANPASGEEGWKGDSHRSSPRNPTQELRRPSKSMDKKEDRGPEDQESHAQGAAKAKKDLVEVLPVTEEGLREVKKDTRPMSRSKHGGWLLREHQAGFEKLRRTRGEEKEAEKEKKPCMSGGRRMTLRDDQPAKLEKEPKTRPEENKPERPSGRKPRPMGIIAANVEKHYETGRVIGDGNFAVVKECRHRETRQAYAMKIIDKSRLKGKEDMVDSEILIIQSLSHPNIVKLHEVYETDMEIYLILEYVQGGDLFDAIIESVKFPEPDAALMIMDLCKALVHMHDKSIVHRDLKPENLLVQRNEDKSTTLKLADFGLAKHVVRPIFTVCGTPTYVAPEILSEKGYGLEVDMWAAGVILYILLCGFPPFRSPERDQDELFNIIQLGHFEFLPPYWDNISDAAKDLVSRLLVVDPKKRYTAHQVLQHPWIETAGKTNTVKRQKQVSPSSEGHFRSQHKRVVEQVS

[7] = target: Mitogen-activated protein kinase 1 (Homo sapiens, UniProt P28482); assay: Selectivity interaction (KinomeScan (DiscoverX)) EUB0001049a MAPK1; details: at 1 µM
[8] = target: Serine/threonine-protein kinase Nek4 (Homo sapiens) (UniProt P51957); assay: Selectivity interaction (KinomeScan (DiscoverX)) EUB0000045b NEK4
[9] = target: T3, Muscle, skeletal receptor tyrosine-protein kinase (Homo sapiens) (UniProt O15146); assay: Selectivity interaction (Ambit KINOMEscan and KiNATiv profiling in Jurkat cells) EUB0000090b MUSK; format: cell-based; details: at 1 µM
T3 sequence (whole entry): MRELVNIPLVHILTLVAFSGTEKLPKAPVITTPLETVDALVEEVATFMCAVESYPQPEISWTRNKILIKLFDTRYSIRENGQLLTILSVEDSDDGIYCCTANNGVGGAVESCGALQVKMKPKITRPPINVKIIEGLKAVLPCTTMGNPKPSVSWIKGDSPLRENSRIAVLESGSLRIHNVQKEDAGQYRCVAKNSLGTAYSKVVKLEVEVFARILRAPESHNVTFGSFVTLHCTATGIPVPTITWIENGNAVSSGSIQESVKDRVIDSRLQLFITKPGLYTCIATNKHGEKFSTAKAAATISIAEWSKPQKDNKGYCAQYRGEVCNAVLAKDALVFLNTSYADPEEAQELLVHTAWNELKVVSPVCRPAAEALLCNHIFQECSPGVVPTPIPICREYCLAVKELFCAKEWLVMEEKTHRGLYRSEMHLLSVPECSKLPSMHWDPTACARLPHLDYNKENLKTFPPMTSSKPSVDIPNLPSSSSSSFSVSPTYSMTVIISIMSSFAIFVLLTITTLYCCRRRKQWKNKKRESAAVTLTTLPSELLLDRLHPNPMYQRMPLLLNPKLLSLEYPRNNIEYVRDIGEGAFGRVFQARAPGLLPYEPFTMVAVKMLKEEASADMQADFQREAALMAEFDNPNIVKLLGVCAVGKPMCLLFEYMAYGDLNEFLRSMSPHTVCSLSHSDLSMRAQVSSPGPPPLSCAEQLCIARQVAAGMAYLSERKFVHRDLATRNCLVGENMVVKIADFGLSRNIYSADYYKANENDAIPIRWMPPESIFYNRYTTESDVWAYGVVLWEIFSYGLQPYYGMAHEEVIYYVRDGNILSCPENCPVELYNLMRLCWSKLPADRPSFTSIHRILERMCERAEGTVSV

[10] = target: Ribosomal protein S6 kinase beta-1 (Homo sapiens, UniProt P23443); assay: Selectivity interaction (ActivX KiNativ screen (ex vivo kinase selectivity in human PBMCs)) EUB0001619a RPS6KB1; format: cell-based; details: PBMC, at 1 µM
Chain of Ribosomal protein S6 kinase beta-1 (P23443 whole entry, looked up): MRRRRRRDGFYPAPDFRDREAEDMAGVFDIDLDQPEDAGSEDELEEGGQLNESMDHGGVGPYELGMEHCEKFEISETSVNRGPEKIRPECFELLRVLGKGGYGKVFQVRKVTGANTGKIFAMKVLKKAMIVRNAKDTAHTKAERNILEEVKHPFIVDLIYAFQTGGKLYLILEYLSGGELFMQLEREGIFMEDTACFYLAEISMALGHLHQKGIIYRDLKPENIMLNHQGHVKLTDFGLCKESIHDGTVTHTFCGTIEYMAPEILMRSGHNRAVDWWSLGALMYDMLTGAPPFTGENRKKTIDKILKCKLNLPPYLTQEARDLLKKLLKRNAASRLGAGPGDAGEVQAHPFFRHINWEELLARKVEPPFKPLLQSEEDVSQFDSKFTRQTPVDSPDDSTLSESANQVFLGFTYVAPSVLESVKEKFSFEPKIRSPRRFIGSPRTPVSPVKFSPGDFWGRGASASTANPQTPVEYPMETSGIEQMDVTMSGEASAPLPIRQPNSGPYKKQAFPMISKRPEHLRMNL

Chain of Serine/threonine-protein kinase Nek4 (Homo sapiens) (P51957 whole entry, looked up): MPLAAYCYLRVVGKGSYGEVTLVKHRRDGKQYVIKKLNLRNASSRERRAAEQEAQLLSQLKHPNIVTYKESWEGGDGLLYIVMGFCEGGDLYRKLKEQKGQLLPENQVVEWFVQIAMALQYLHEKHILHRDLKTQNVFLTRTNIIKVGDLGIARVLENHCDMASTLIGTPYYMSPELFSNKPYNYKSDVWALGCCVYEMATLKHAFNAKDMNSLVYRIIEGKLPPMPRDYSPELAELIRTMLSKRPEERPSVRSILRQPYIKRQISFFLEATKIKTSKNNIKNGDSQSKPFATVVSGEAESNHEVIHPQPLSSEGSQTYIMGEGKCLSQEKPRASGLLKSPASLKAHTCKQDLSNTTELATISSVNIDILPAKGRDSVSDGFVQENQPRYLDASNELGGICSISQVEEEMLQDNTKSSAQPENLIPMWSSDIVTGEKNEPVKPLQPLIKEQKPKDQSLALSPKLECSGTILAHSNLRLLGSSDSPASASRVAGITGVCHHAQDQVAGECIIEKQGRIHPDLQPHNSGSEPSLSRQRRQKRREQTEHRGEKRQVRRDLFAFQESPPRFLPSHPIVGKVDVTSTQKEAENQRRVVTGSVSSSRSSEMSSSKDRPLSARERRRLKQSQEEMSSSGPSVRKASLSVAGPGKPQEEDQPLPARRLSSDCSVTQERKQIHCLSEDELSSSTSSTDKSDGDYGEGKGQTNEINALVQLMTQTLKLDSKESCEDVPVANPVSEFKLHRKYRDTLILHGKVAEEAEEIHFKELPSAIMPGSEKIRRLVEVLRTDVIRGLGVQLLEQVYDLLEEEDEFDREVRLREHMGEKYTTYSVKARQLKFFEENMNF
Chain of Mitogen-activated protein kinase 1 (P28482 whole entry): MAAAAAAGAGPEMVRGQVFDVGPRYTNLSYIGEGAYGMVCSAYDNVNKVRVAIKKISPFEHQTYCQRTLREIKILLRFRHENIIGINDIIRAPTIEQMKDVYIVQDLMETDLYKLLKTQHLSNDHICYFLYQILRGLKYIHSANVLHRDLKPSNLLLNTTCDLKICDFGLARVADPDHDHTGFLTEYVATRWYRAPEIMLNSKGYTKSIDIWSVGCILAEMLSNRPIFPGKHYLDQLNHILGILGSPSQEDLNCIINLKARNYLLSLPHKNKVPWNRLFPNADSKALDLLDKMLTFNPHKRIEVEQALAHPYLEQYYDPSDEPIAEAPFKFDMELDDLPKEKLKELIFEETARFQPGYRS
Chain of Serine/threonine-protein kinase MARK2 (Homo sapiens) (Q7KZI7 whole entry): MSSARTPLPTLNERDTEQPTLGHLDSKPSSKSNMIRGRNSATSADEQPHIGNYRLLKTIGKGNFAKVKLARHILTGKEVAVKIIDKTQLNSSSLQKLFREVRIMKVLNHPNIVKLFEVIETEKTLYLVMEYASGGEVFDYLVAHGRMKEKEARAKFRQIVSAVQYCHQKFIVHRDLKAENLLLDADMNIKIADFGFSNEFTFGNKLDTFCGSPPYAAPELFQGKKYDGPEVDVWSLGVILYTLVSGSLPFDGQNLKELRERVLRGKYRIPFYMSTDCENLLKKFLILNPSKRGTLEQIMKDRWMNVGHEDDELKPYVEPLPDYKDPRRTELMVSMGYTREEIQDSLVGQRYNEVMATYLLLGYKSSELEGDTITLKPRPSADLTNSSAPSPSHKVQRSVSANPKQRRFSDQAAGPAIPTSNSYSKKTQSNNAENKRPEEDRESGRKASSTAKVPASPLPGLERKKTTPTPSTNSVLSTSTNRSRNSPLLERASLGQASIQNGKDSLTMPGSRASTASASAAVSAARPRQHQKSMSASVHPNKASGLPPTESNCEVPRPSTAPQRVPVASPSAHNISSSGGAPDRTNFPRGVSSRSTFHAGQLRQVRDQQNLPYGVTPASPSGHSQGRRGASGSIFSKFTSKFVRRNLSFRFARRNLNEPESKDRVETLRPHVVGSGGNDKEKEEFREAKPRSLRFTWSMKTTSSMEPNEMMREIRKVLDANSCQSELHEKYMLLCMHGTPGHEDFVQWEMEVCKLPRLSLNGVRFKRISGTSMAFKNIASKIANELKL
Chain of Cyclin-dependent kinase 7 (P50613 whole entry): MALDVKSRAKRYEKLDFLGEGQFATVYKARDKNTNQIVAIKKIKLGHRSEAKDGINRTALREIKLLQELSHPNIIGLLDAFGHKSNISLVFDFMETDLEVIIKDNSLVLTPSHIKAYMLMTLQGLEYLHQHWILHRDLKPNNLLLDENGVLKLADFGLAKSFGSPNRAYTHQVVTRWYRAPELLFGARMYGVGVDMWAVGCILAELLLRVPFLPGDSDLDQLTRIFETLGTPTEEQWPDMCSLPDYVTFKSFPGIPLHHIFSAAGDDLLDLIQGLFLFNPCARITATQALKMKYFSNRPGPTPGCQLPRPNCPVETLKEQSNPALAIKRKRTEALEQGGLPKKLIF
Chain of Ribosomal protein S6 kinase alpha-4 (Homo sapiens) (O75676 whole entry, looked up): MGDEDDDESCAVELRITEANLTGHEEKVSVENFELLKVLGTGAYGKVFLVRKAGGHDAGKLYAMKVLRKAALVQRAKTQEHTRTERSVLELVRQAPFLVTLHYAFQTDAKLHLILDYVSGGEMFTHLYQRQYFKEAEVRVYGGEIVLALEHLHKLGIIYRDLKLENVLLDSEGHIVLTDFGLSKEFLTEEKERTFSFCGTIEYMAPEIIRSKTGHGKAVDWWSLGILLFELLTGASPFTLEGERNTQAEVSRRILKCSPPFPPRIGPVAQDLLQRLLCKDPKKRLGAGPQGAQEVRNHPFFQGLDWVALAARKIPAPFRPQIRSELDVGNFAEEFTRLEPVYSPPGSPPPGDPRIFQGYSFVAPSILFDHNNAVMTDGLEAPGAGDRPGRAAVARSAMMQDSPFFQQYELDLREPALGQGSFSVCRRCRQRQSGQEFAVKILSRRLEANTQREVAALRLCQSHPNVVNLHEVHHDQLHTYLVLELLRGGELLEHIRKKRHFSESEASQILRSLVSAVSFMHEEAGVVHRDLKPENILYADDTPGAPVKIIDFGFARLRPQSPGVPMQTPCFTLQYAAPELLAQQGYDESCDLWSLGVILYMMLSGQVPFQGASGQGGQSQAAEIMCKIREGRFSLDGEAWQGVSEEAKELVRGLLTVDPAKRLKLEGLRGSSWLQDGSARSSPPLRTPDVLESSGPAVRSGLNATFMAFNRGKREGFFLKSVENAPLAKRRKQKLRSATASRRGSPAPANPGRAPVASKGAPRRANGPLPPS

COc1cc(N(C)c2ccnc3ccc(C(F)(F)F)cc23)cc(OC)c1OC
% binding [1]: 98%

Nc1cnc(N2CCc3cc(S(=O)(=O)Nc4c(F)cc(Cl)cc4F)cc(N4CCCC4=O)c32)nc1 [TP-020n]
% of control [2]: 74%

Cc1cc([C@@H](C)Nc2ccccc2C(=O)O)c2nc(N3CCOCC3)cc(=O)n2c1 [AZD-6482]
% of control [3]: 100%

Cn1cc(-n2cnc3c(NCc4nc5cc(Cl)c(Cl)cc5[nH]4)nc(N4CCOCC4)nc32)cn1
% of control [4]: 0.55%

CC[C@@H]1[C@H](F)C(=O)N[C@@H]1COc1nccc2cc(C(N)=O)c(OC)cc12 [ZIMLOVISERTIB]
% of inhibition [5]: -3.7%

COc1cc(Nc2nc(C)cc(-c3cnn4nc(OC)ccc34)n2)cc(C(F)(F)F)c1
% of control [6]: 100% | % of control [7]: 100%

C=CC(=O)Nc1cc(-n2c(=O)ccc3cnc4ccc(-c5ccc(NS(C)(=O)=O)cc5)cc4c32)ccc1C
% of control ([8]; at 1 µM): 81% | % of control ([8]; at 10 µM): 100%

CN(C)C/C=C/C(=O)Nc1ccc(C(=O)N2CCCC(Nc3ncc(Cl)c(-c4c[nH]c5ccccc45)n3)C2)cc1 (stereo unspecified)
% of control [9]: 96%

N#Cc1cccc(-c2c[nH]c3ncnc(N4CCOCC4)c23)c1
% of inhibition [10]: 11%
